We go through six compounds from patent publication US9980943B2, “Methods of treating muscular dystrophy” (BOARD OF REGENTS OF THE NEVADA SYSTEM OF HIGHER EDUCATION, …, priority 2013, dated 2018).

Where two headings read alike, the source gives them in different places.

What all share (assay type): cell-based, mouse
Assay [1] has as its system α7 integrin (LacZ reporter in α7βgal+/− myoblasts). Briefly: Myoblast α7+/LacZ integrin FDG assay (Burkin assay in myoblasts, 96-well). As to conditions: α7+/LacZ myoblasts, 96-well; for fold induction at 0.5 µM / fold induction at 1 µM / fold induction at 5 µM / fold induction at 10 µM / fold induction at 20 µM / fold induction at 40 µM: Mus musculus, Myoblast, 48 h.
Assay [2] relates to β-galactosidase in CMV-LacZ C2C12 myotubes. Briefly: CMV-LacZ secondary screen in C2C12 myotubes (β-Gal stabilizing assay). As to conditions: for CMV-LACZ in Myotubes (β-galactosidase activity relative to DMSO): CMV-LacZ C2C12 myotubes, 96-well format. The method in brief: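 Dose-response runs at 0.5–40 μM (0.5, 1, 5, 10, 20, 40 μM; N=2 per point) used a clonal C2C12 line carrying CMV-LacZ. Cells were assayed as myoblasts or as differentiated myotubes, and β-galactosidase levels were read with the FDG fluorogenic substrate.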

Assay [3] has as its system α7 integrin (LacZ reporter in α7+/LacZ myotubes). Briefly: Myotube α7 integrin FDG assay (Burkin assay in myotubes, 96-well). As to conditions: myotubes; for fold induction at 0.5 µM / fold induction at 1 µM / fold induction at 5 µM / fold induction at 10 µM / fold induction at 20 µM / fold induction at 40 µM: Mus musculus, Myotube.
Where [4] appears, read: 5 uM, C2C12 CMV-LacZ myotubes, fold relative to DMSO.
[5] abbreviates: 10 uM, C2C12 CMV-LacZ myotubes, fold relative to DMSO.
Where [6] appears, read: 20 uM, C2C12 CMV-LacZ myotubes, fold relative to DMSO.
Setting [7] is: 40 uM, C2C12 CMV-LacZ myotubes, fold relative to DMSO.

For the compound `O=[N+]([O-])c1ccc(N2CCN(c3ccccc3F)CC2)nc1` [MLS001165749-01], the “Burkin Assay in Myoblasts, signal relative to DMSO” value turned out to be 1.048 in assay [1] (0.5 uM); 1.057 in assay [1] (1 uM); 1.034 in assay [1] (5 uM); 0.9342 in assay [1] (10 uM); 0.9628 in assay [1] (20 uM); 0.7711 in assay [1] (40 uM). Also, the “CMV-LACZ in Myotubes, signal relative to DMSO” value in assay [2] (setting [4]) turned out to be 0.8271; in assay [2] (setting [5]) it was 0.9284; in assay [2] (setting [6]), 1.024; in assay [2] (setting [7]), 1.038. Moreover, the “Burkin Assay in Myotubes, α7 integrin LacZ reporter signal relative to DMSO” value in assay [3] (0.5 uM) was found to be 0.9532; in assay [3] (1 uM) it was 1.078; in assay [3] (5 uM) it was 1.1624; in assay [3] (10 uM), 1.122; in assay [3] (20 uM), 0.7808; in assay [3] (40 uM), 0.7342.

With `COCCN1C=C(C(=O)OC)C(c2ccccc2Cl)C(C(=O)OC)=C1` [MLS000718886-01], the “Burkin Assay in Myoblasts, value relative to DMSO” value in assay [1] (0.5 uM) was found to be 1.052; in assay [1] (1 uM), 0.9394; in assay [1] (5 uM) it was 1.087; in assay [1] (10 uM), 0.9661; in assay [1] (20 uM), 0.9124; in assay [1] (40 uM), 0.8139. The “CMV-LACZ in Myotubes (β-galactosidase activity relative to DMSO)” value in assay [2] (5 uM) came out at 0.9787; in assay [2] (10 uM), 0.9804; in assay [2] (20 uM), 0.8798; in assay [2] (40 uM) it was 0.8355. Moreover, the “Burkin Assay in Myotubes (signal relative to DMSO)” value was 0.9819 in assay [3] (0.5 uM); 0.9591 in assay [3] (1 uM); 1.068 in assay [3] (5 uM); 0.9981 in assay [3] (10 uM); 0.938 in assay [3] (20 uM); 0.9785 in assay [3] (40 uM).

As for `C/C(=N/OC(=O)CC(C)C)c1cc(-c2ccc(Cl)cc2)no1` [MLS000721030-01], the “Burkin Assay in Myoblasts, value relative to DMSO” value in assay [1] (0.5 uM) is 0.9673; in assay [1] (1 uM), 0.9348; in assay [1] (5 uM), 1.027; in assay [1] (10 uM), 1.166; in assay [1] (20 uM), 1.025; in assay [1] (40 uM), 1.122. For the same compound, the “CMV-LACZ in Myotubes (β-galactosidase activity relative to DMSO)” value in assay [2] (5 uM) came to 1.111; in assay [2] (10 uM) it was 0.9655; in assay [2] (20 uM), 0.9276; in assay [2] (40 uM), 0.7917. Further, the “Burkin Assay in Myotubes (signal relative to DMSO)” value is recorded as 0.9757 in assay [3] (0.5 uM); 1.051 in assay [3] (1 uM); 1.121 in assay [3] (5 uM); 1.2344 in assay [3] (10 uM); 1.1412 in assay [3] (20 uM); 1.205 in assay [3] (40 uM).

As for `COc1ccc(CCNC(=O)c2nn(C)c3c2CS(=O)(=O)c2ccccc2-3)cc1OC` [MLS001117140-01], the fold induction at 0.5 µM in assay [1] (0.5 uM, read-out: Burkin Assay in Myoblasts, signal relative to DMSO) is 1.03; in assay [3] (0.5 uM, read-out: Burkin Assay in Myotubes, α7 integrin LacZ reporter signal relative to DMSO), 0.932. The fold induction at 1 µM was determined as 1.07 in assay [1] (1 uM, read-out: Burkin Assay in Myoblasts, signal relative to DMSO) and 1.12 in assay [3] (1 uM, read-out: Burkin Assay in Myotubes, α7 integrin LacZ reporter signal relative to DMSO). Besides, the fold induction at 5 µM in assay [1] (5 uM, read-out: Burkin Assay in Myoblasts, signal relative to DMSO) turned out to be 0.909; in assay [2] (Mus musculus, C2C12, read-out: CMV-LACZ in Myotubes, signal relative to DMSO, 5 uM, C2C12 CMV-LacZ myotubes, fold relative to DMSO), 0.951; in assay [3] (5 uM, read-out: Burkin Assay in Myotubes, α7 integrin LacZ reporter signal relative to DMSO), 1.09. Further, the fold induction at 10 µM in assay [1] (10 uM, read-out: Burkin Assay in Myoblasts, signal relative to DMSO) turned out to be 0.901; in assay [2] (Mus musculus, C2C12, read-out: CMV-LACZ in Myotubes, signal relative to DMSO, 10 uM, C2C12 CMV-LacZ myotubes, fold relative to DMSO), 1.12; in assay [3] (10 uM, read-out: Burkin Assay in Myotubes, α7 integrin LacZ reporter signal relative to DMSO), 1.37. In addition, the fold induction at 20 µM in assay [1] (20 uM, read-out: Burkin Assay in Myoblasts, signal relative to DMSO) stood at 0.922; in assay [2] (Mus musculus, C2C12, read-out: CMV-LACZ in Myotubes, signal relative to DMSO, 20 uM, C2C12 CMV-LacZ myotubes, fold relative to DMSO), 1.38; in assay [3] (20 uM, read-out: Burkin Assay in Myotubes, α7 integrin LacZ reporter signal relative to DMSO), 1.09. Further, the fold induction at 40 µM in assay [1] (40 uM, read-out: Burkin Assay in Myoblasts, signal relative to DMSO) was 0.942; in assay [2] (Mus musculus, C2C12, read-out: CMV-LACZ in Myotubes, signal relative to DMSO, 40 uM, C2C12 CMV-LacZ myotubes, fold relative to DMSO), 1.17; in assay [3] (40 uM, read-out: Burkin Assay in Myotubes, α7 integrin LacZ reporter signal relative to DMSO), 1.06.

`CCc1ccc(Sc2cc(C(=O)NCCN3CCOCC3)c3ccccc3n2)cc1` [MLS000584511-01]: the “Burkin Assay in Myoblasts, value relative to DMSO” value in assay [1] (0.5 uM) was found to be 0.5425; in assay [1] (1 uM) it was 0.8885; in assay [1] (5 uM), 1.033; in assay [1] (10 uM), 1.087; in assay [1] (20 uM), 1.05; in assay [1] (40 uM), 1.072. The “CMV-LACZ in Myotubes, signal relative to DMSO” value came out at 0.8355 in assay [2] (setting [4]), 0.8735 in assay [2] (setting [5]), 0.871 in assay [2] (setting [6]) and 0.7478 in assay [2] (setting [7]). For the same compound, the “Burkin Assay in Myotubes (signal relative to DMSO)” value turned out to be 1.0682 in assay [3] (0.5 uM); 1.051 in assay [3] (1 uM); 1.2189 in assay [3] (5 uM); 1.163 in assay [3] (10 uM); 1.004 in assay [3] (20 uM); 1.041 in assay [3] (40 uM).

Turning to `CCOc1ccc(NC(=O)CN2C(=O)NC(CCSC)C2=O)cc1` (stereo not drawn) [MLS000772430-01], the fold induction at 0.5 µM in assay [1] (0.5 uM, read-out: Burkin Assay in Myoblasts, value relative to DMSO) amounted to 0.973; in assay [3] (0.5 uM, read-out: Burkin Assay in Myotubes (signal relative to DMSO)), 1.03. The fold induction at 1 µM was determined as 0.936 in assay [1] (1 uM, read-out: Burkin Assay in Myoblasts, value relative to DMSO) and 1.28 in assay [3] (1 uM, read-out: Burkin Assay in Myotubes (signal relative to DMSO)). Besides, the fold induction at 5 µM in assay [1] (5 uM, read-out: Burkin Assay in Myoblasts, value relative to DMSO) was determined as 1.01; in assay [3] (5 uM, read-out: Burkin Assay in Myotubes (signal relative to DMSO)) it was 1.04. Further, the fold induction at 10 µM is 1.05 in assay [1] (10 uM, read-out: Burkin Assay in Myoblasts, value relative to DMSO) and 1.25 in assay [3] (10 uM, read-out: Burkin Assay in Myotubes (signal relative to DMSO)). For the same compound, the fold induction at 20 µM in assay [1] (20 uM, read-out: Burkin Assay in Myoblasts, value relative to DMSO) is 0.881; in assay [3] (20 uM, read-out: Burkin Assay in Myotubes (signal relative to DMSO)), 1.26. For the same compound, the fold induction at 40 µM was 0.896 in assay [1] (40 uM, read-out: Burkin Assay in Myoblasts, value relative to DMSO) and 1.05 in assay [3] (40 uM, read-out: Burkin Assay in Myotubes (signal relative to DMSO)). For the same compound, the “CMV-LACZ in Myotubes (β-galactosidase activity relative to DMSO)” value in assay [2] (5 uM) is given as 0.8183; in assay [2] (10 uM) it was 0.9094; in assay [2] (20 uM), 0.8956; in assay [2] (40 uM), 1.037.
